Measurements reported in patent US20240075243A1, “REUSABLE HYDROPHILIC URINARY CATHETER ASSEMBLY” (WELLSPECT AB, priority 2021, published 2024).

Test system: E. coli
Assay: Disinfection effect of hydration liquids on catheters immersed in E. coli suspension
Format: cell-based
Settings: 4 hours immersion, incubated at 37 deg. C for 19.5 hours
Source text: In another line of experiments, hydration liquids with different types of disinfection mediums were used, and evaluated in respect of the disinfection effect. The hydration liquid comprised 5 wt % of PVP K30, and various disinfection mediums. As comparative examples, a hydration liquid with PVP K30 but without any disinfection medium was used, as well as a hydration liquid only comprising water. For the tests, catheters were first activated in a hydration liquid containing a disinfectant. Thereafter, the catheters were immersed in an E. coli suspension. The catheters were then rinsed in plain water, before again being immersed in the same hydration liquid used for the activation for 4 hours. Thereafter, the catheters were transferred into a growth medium and incubated at 37 deg. C for 19.5 hours. After this, it was determined whether, or not, bacterial growth had occurred during incubation.

Q: Which Result after incubation (disinfection medium 0.025 wt % in hydration liquid with 5 wt % PVP K30) does the source give for benzalkonium chloride here?
A: Its Result after incubation is “No growth”.

Q: And the Result after incubation (disinfection medium 0.1 wt % in hydration liquid with 5 wt % PVP K30)?
A: The Result after incubation was “No growth”.

Q: With O=[N+]([O-])[O-].[Ag+] [Silver nitrate, silver nitrate] as the compound, how does the Result after incubation (disinfection medium 0.05 wt % in hydration liquid with 5 wt % PVP K30) read?
A: The Result after incubation was “No growth”.

Q: What about the Result after incubation (disinfection medium 0.2 wt % in hydration liquid with 5 wt % PVP K30) of the same compound?
A: Its Result after incubation is “No growth”.

Q: OCl [Sodium hypochlorite, sodium hypochlorite] was tested. Which Result after incubation (disinfection medium 0.02 wt % in hydration liquid with 5 wt % PVP K30) did it give?
A: The Result after incubation was “No growth”.

Q: Oc1cc(Cl)ccc1Oc1ccc(Cl)cc1Cl [Triclosan, triclosan] was tested. Which Result after incubation (disinfection medium 0.075 wt % in hydration liquid with 5 wt % PVP K30) did it give?
A: The Result after incubation was “No growth”.

Q: What about the Result after incubation (disinfection medium 0.3 wt % in hydration liquid with 5 wt % PVP K30) of the same compound?
A: The Result after incubation was “No growth”.
